Measured values: BindingDB's records for doi:10.1021/acsmedchemlett.8b00406 (China Agricultural University, 2018)

Molecular target: beta-hexosaminidase HsHex (Homo sapiens)
Test: Inhibition of human beta-N-acetylhexosaminidase using p-nitrophenyl glycoside as substrate by spectrometric method

Ki: 3.2 µM
Structure (SMILES): O=C1c2cccc3cccc(c23)C(=O)N1CCNCCN1C(=O)c2cccc3cccc(c23)C1=O
